A value given as a limit tells only on which side of the number the result lay.

One assay relates to HCT116 cells. The assay is described as follows: In vitro cytotoxicity measured by the cell colony formation assay. It is filed as cell-based. To be noted: HCT116 cells, 72 h incubation with drug, colonies counted after 7 days; ID50 = drug concentration producing 50% inhibition of colony formation; read-out: IN VITRO ID 50 (nm) HCT116. In outline:
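Colony-forming survival was scored 7 days after a 72 h, 37 °C compound exposure followed by washout into fresh medium.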
`CCOC(=O)O[C@H]1C(=O)[C@@]2(C)C([C@H](OC(=O)c3ccccc3)[C@]3(O)C[C@H](OC(=O)[C@H](O)[C@@H](NC(=O)OC(C)(C)C)c4ccsc4)C(C)=C1C3(C)C)[C@]1(OC(C)=O)CO[C@@H]1C[C@@H]2O` (some centres unmarked) [Compound 1841]: the IC50 was below 1 nM.
In the case of `COC(=O)O[C@H]1C[C@H]2OC[C@@]2(OC(C)=O)C2[C@H](OC(=O)c3ccccc3)[C@]3(O)C[C@H](OC(=O)[C@H](O)[C@H](C=C(C)C)NC(=O)OCC(C)C)C(C)=C([C@@H](O)C(=O)[C@@]21C)C3(C)C` (some centres unmarked) [Compound 4644], the IC50 was below 10 nM.
Still for that read-out and setting: the same measure for `COC(=O)O[C@H]1C(=O)[C@@]2(C)C([C@H](OC(=O)c3ccccc3)[C@]3(O)C[C@H](OC(=O)[C@H](O)[C@@H](NC(=O)OC(C)(C)C)C4CCC4)C(C)=C1C3(C)C)[C@]1(OC(C)=O)CO[C@@H]1C[C@@H]2O` (some centres unmarked) [Compound 2077]: below 10 nM; for `CCOC(=O)O[C@H]1C(=O)[C@@]2(C)C([C@H](OC(=O)c3ccccc3)[C@]3(O)C[C@H](OC(=O)[C@H](O)[C@@H](NC(=O)c4ccco4)c4ccco4)C(C)=C1C3(C)C)[C@]1(OC(C)=O)CO[C@@H]1C[C@@H]2O` (some centres unmarked) [Compound 3911]: below 1 nM.
For the molecule `CCOC(=O)O[C@H]1C(=O)[C@@]2(C)C([C@H](OC(=O)c3ccccc3)[C@]3(O)C[C@H](OC(=O)[C@H](O)[C@@H](NC(=O)c4ccccn4)c4cccs4)C(C)=C1C3(C)C)[C@]1(OC(C)=O)CO[C@@H]1C[C@@H]2O` (some centres unmarked) [Compound 3433], the IC50 was 22.3 nM.
On the same count and under the same terms, the same measure for `CCOC(=O)N[C@@H](c1cccs1)[C@@H](O)C(=O)O[C@H]1C[C@@]2(O)[C@@H](OC(=O)c3ccccc3)C3[C@](C)(C(=O)[C@H](OC(=O)OCC)C(=C1C)C2(C)C)[C@@H](O)C[C@H]1OC[C@@]31OC(C)=O` (some centres unmarked) [Compound 2988]: below 1 nM; for `COC(=O)O[C@H]1C(=O)[C@@]2(C)C([C@H](OC(=O)c3ccccc3)[C@]3(O)C[C@H](OC(=O)[C@H](O)[C@@H](NC(=O)OC(C)(C)C)C(C)C)C(C)=C1C3(C)C)[C@]1(OC(C)=O)CO[C@@H]1C[C@@H]2O` (some centres unmarked) [Compound 2062]: below 10 nM; for `CCCC(=O)N[C@@H](c1ccco1)[C@@H](O)C(=O)O[C@H]1C[C@@]2(O)[C@@H](OC(=O)c3ccccc3)C3[C@](C)(C(=O)[C@H](OC(=O)OCC)C(=C1C)C2(C)C)[C@@H](O)C[C@H]1OC[C@@]31OC(C)=O` (some centres unmarked) [Compound 3929]: below 1 nM.
Same read-out and setting: the same measure for `COC(=O)O[C@H]1C[C@H]2OC[C@@]2(OC(C)=O)C2[C@H](OC(=O)c3ccccc3)[C@]3(O)C[C@H](OC(=O)[C@H](O)[C@@H](NC(=O)OC(C)(C)C)c4ccsc4)C(C)=C([C@@H](O)C(=O)[C@@]21C)C3(C)C` (some centres unmarked) [Compound 4474]: below 1 nM.

Staying with this assay, now noted: HCT116 colony formation; 72 h drug incubation, colonies counted after 7 days; Example 5, C-7 ester/C-10 hydroxy taxanes; read-out: IN VITRO ID 50 (nm) HCT116.
`CCCC(=O)O[C@H]1C[C@H]2OC[C@@]2(OC(C)=O)C2[C@H](OC(=O)c3ccccc3)[C@]3(O)C[C@H](OC(=O)[C@H](O)[C@H](C=C(C)C)NC(=O)OCC(C)C)C(C)=C([C@@H](O)C(=O)[C@@]21C)C3(C)C` (some centres unmarked) [Compound 5131]: the IC50 is below 10 nM.
Same read-out and setting: the same measure for `CC(=O)O[C@@]12CO[C@@H]1C[C@H](OC(=O)C(C)C)[C@@]1(C)C(=O)[C@H](O)C3=C(C)[C@@H](OC(=O)[C@H](O)[C@@H](NC(=O)C(C)C)c4ccco4)C[C@@](O)([C@@H](OC(=O)c4ccccc4)C12)C3(C)C` (some centres unmarked) [Compound 6121]: below 10 nM; for `C/C=C/C(=O)N[C@@H](c1ccsc1)[C@@H](O)C(=O)O[C@H]1C[C@@]2(O)[C@@H](OC(=O)c3ccccc3)C3[C@](C)(C(=O)[C@H](O)C(=C1C)C2(C)C)[C@@H](OC(=O)CC)C[C@H]1OC[C@@]31OC(C)=O` (some centres unmarked) [Compound 5020]: below 1 nM.
Same read-out and setting: the same measure for `CCCC(=O)O[C@H]1C[C@H]2OC[C@@]2(OC(C)=O)C2[C@H](OC(=O)c3ccccc3)[C@]3(O)C[C@H](OC(=O)[C@H](O)[C@@H](NC(=O)c4ccccc4)c4cccs4)C(C)=C([C@@H](O)C(=O)[C@@]21C)C3(C)C` (some centres unmarked) [Compound 4175]: below 10 nM; for `C/C=C/C(=O)N[C@@H](c1ccco1)[C@@H](O)C(=O)O[C@H]1C[C@@]2(O)[C@@H](OC(=O)c3ccccc3)C3[C@](C)(C(=O)[C@H](O)C(=C1C)C2(C)C)[C@@H](OC(=O)C(C)C)C[C@H]1OC[C@@]31OC(C)=O` (some centres unmarked) [Compound 6202]: below 1 nM; for `CCCC(=O)O[C@H]1C[C@H]2OC[C@@]2(OC(C)=O)C2[C@H](OC(=O)c3ccccc3)[C@]3(O)C[C@H](OC(=O)[C@H](O)[C@@H](NC(=O)OCC(C)C)c4cccs4)C(C)=C([C@@H](O)C(=O)[C@@]21C)C3(C)C` (some centres unmarked) [Compound 4290]: below 10 nM.
Consider `C/C=C/C(=O)N[C@@H](c1cccs1)[C@@H](O)C(=O)O[C@H]1C[C@@]2(O)[C@@H](OC(=O)c3ccccc3)C3[C@](C)(C(=O)[C@H](O)C(=C1C)C2(C)C)[C@@H](OC(=O)CCC)C[C@H]1OC[C@@]31OC(C)=O` (some centres unmarked) [Compound 4757], for which the IC50 was below 1 nM.

Still in this assay, the particulars now being: HCT116 colony formation; 72 h drug incubation, colonies counted after 7 days; Example 10, C-10 ester/C-7 hydroxy taxanes; read-out: IN VITRO ID 50 (nm) HCT116.
With `CC(=O)O[C@@]12CO[C@@H]1C[C@H](O)[C@@]1(C)C(=O)[C@H](OC(=O)C(C)C)C3=C(C)[C@@H](OC(=O)[C@H](O)[C@@H](NC(=O)OC(C)(C)C)c4cccs4)C[C@@](O)([C@@H](OC(=O)c4ccccc4)C12)C3(C)C` (some centres unmarked) [Compound 2287], the IC50 is below 1 nM.
The same measure, in the same setting: the same measure for `C/C=C/C(=O)O[C@H]1C(=O)[C@@]2(C)C([C@H](OC(=O)c3ccccc3)[C@]3(O)C[C@H](OC(=O)[C@H](O)[C@@H](NC(=O)OC(C)(C)C)c4ccccc4)C(C)=C1C3(C)C)[C@]1(OC(C)=O)CO[C@@H]1C[C@@H]2O` (some centres unmarked) [Compound 2442]: below 1 nM.
Still for that read-out and setting: the same measure for `CC(=O)O[C@@]12CO[C@@H]1C[C@H](O)[C@@]1(C)C(=O)[C@H](OC(=O)C3CC3)C3=C(C)[C@@H](OC(=O)[C@H](O)[C@@H](NC(=O)OC(C)(C)C)c4ccco4)C[C@@](O)([C@@H](OC(=O)c4ccccc4)C12)C3(C)C` (some centres unmarked) [Compound 0843]: below 1 nM; for `CC(=O)O[C@@]12CO[C@@H]1C[C@H](O)[C@@]1(C)C(=O)[C@H](OC(=O)C3CC3)C3=C(C)[C@@H](OC(=O)[C@H](O)[C@@H](NC(=O)OC(C)C)c4ccco4)C[C@@](O)([C@@H](OC(=O)c4ccccc4)C12)C3(C)C` (some centres unmarked) [Compound 3853]: below 1 nM.
On the same count and under the same terms, the same measure for `CC(=O)O[C@@]12CO[C@@H]1C[C@H](O)[C@@]1(C)C(=O)[C@H](OC(=O)C=C(C)C)C3=C(C)[C@@H](OC(=O)[C@H](O)[C@@H](NC(=O)OC(C)(C)C)c4ccsc4)C[C@@](O)([C@@H](OC(=O)c4ccccc4)C12)C3(C)C` (some centres unmarked) [Compound 2511]: below 1 nM; for `CC(=O)OC12COC1CC(O)C1(C)C(=O)C(OC(=O)c3cccs3)C3=C(C)C(OC(=O)C(O)C(NC(=O)OC(C)(C)C)c4ccsc4)CC(O)(C(OC(=O)c4ccccc4)C21)C3(C)C` (centres unmarked) [Compound 1939]: below 1 nM.
For `CCCC(=O)O[C@H]1C(=O)[C@@]2(C)C([C@H](OC(=O)c3ccccc3)[C@]3(O)C[C@H](OC(=O)[C@H](O)[C@@H](NC(=O)OC(C)(C)C)c4cccs4)C(C)=C1C3(C)C)[C@]1(OC(C)=O)CO[C@@H]1C[C@@H]2O` (some centres unmarked) [Compound 1003], the IC50 is below 1 nM.
As to `CCC(=O)O[C@H]1C(=O)[C@@]2(C)C([C@H](OC(=O)c3ccccc3)[C@]3(O)C[C@H](OC(=O)[C@H](O)[C@@H](NC(=O)c4ccccc4)C(C)C)C(C)=C1C3(C)C)[C@]1(OC(C)=O)CO[C@@H]1C[C@@H]2O` (some centres unmarked) [Compound 0719], the IC50 is below 10 nM.
The same measure, in the same setting: the same measure for `CCC(=O)O[C@H]1C(=O)[C@@]2(C)C([C@H](OC(=O)c3ccccc3)[C@]3(O)C[C@H](OC(=O)[C@H](O)[C@@H](NC(=O)OC(C)(C)C)c4cccs4)C(C)=C1C3(C)C)[C@]1(OC(C)=O)CO[C@@H]1C[C@@H]2O` (some centres unmarked) [Compound 0550]: below 10 nM; for `CCCC(=O)O[C@H]1C(=O)[C@@]2(C)C([C@H](OC(=O)c3ccccc3)[C@]3(O)C[C@H](OC(=O)[C@H](O)[C@@H](NC(=O)c4ccco4)c4cccs4)C(C)=C1C3(C)C)[C@]1(OC(C)=O)CO[C@@H]1C[C@@H]2O` (some centres unmarked) [Compound 3352]: below 1 nM; for `CCC(=O)O[C@H]1C(=O)[C@@]2(C)C([C@H](OC(=O)c3ccccc3)[C@]3(O)C[C@H](OC(=O)[C@H](O)[C@@H](NC(=O)OC(C)(C)C)c4ccoc4)C(C)=C1C3(C)C)[C@]1(OC(C)=O)CO[C@@H]1C[C@@H]2O` (some centres unmarked) [Compound 0549]: below 10 nM.
Same read-out and setting: the same measure for `CCC(=O)O[C@H]1C(=O)[C@@]2(C)C([C@H](OC(=O)c3ccccc3)[C@]3(O)C[C@H](OC(=O)[C@H](O)[C@@H](NC(=O)c4ccccc4)C4CCC4)C(C)=C1C3(C)C)[C@]1(OC(C)=O)CO[C@@H]1C[C@@H]2O` (some centres unmarked) [Compound 0720]: below 10 nM.

The same assay, now with this note: HCT116 colony formation; 72 h drug incubation, colonies counted after 7 days; Example 15, C-7 substituted acetate/C-10 hydroxy taxanes; read-out: IN VITRO ID 50 (nm) HCT116.
`C/C=C/C(=O)N[C@@H](c1ccco1)[C@@H](O)C(=O)O[C@H]1C[C@@]2(O)[C@@H](OC(=O)c3ccccc3)C3[C@](C)(C(=O)[C@H](O)C(=C1C)C2(C)C)[C@@H](OC(=O)COC)C[C@H]1OC[C@@]31OC(C)=O` (some centres unmarked) [Compound 5835]: the IC50 is below 1 nM.
Same read-out and setting: the same measure for `CC(=O)O[C@@]12CO[C@@H]1C[C@H](OC(=O)COc1ccccc1)[C@@]1(C)C(=O)[C@H](O)C3=C(C)[C@@H](OC(=O)[C@H](O)[C@@H](NC(=O)C=C(C)C)c4ccco4)C[C@@](O)([C@@H](OC(=O)c4ccccc4)C12)C3(C)C` (some centres unmarked) [Compound 5555]: below 1 nM; for `COCC(=O)O[C@H]1C[C@H]2OC[C@@]2(OC(C)=O)C2[C@H](OC(=O)c3ccccc3)[C@]3(O)C[C@H](OC(=O)[C@H](O)[C@@H](NC(=O)OC(C)(C)C)c4ccco4)C(C)=C([C@@H](O)C(=O)[C@@]21C)C3(C)C` (some centres unmarked) [Compound 6326]: below 1 nM.

The same assay, now with this note: HCT116 colony formation; 72 h drug incubation, colonies counted after 7 days; Example 20, C-10 substituted acetate/C-7 hydroxy taxanes; read-out: IN VITRO ID 50 (nm) HCT116.
With `CCC(C)(C)OC(=O)NC(c1ccco1)C(O)C(=O)OC1CC2(O)C(OC(=O)c3ccccc3)C3C4(OC(C)=O)COC4CC(O)C3(C)C(=O)C(OC(=O)COC)C(=C1C)C2(C)C` (centres unmarked) [Compound 6515, N-Debenzoyl-N-tert-amyloxycarbonyl-3′-desphenyl-3′-(2-furyl)-10-methoxyacetyl taxol], the IC50 is below 1 nM.

The values above are taken from US6638973B2, “Taxane formulations” (FSU Research Foundation, Inc., priority 2000, dated 2003).
